Tests used:
[1] = tested on: Cardiac muscle of left ventricle; experiment: (§1) Effect on cardiac electrophysiological profile in Mongrel perfused dog heart left ventricular muscle stimulated at basic cycle length of 1000 milliseconds assessed as Vmax at 10 uM measured after 25 mins by glass capillary microelectrode based electrophysiology assay (reference value: 244.6 +/- 30.87 V/s); assay type: functional, Canis lupus familiaris
[2] = target: T1, Potassium/sodium hyperpolarization-activated cyclic nucleotide-gated channel 4 (Mus musculus) (UniProt O70507); experiment: Inhibition of HCN4 in C57BL/6J mouse thalamocortical relay neuron assessed as reduction in hyperpolarization current at 30 uM at holding potential of -120 mV by whole-cell patch clamp assay relative to control
T1 sequence (whole entry): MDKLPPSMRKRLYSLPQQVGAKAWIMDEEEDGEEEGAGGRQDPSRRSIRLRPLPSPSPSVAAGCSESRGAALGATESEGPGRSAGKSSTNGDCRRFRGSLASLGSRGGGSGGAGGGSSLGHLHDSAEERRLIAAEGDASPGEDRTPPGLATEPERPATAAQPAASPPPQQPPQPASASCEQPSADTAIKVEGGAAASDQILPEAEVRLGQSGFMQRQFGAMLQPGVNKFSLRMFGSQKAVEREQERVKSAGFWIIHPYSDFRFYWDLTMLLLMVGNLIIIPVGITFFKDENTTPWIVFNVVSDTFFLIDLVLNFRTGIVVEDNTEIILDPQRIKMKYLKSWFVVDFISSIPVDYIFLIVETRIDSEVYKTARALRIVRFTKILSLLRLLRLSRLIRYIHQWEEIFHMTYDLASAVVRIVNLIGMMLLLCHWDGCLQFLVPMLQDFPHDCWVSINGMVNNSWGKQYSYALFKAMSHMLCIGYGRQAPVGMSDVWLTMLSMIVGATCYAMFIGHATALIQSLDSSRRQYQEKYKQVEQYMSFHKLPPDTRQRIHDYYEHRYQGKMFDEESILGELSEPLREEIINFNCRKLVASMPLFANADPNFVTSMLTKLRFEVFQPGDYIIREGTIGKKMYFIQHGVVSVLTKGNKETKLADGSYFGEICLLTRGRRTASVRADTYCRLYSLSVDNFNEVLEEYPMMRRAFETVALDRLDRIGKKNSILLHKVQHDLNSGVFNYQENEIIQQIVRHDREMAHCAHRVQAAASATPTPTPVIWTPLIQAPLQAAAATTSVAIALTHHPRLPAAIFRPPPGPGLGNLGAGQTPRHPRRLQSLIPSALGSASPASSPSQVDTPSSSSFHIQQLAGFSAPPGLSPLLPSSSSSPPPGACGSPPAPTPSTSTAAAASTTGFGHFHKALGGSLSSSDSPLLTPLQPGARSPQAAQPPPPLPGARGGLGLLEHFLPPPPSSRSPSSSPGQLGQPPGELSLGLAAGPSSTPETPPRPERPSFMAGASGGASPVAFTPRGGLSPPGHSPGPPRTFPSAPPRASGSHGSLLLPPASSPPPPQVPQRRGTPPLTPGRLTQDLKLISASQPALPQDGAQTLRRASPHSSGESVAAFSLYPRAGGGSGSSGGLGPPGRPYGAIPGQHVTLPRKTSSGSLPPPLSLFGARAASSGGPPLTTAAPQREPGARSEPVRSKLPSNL

[3] = Selectivity ratio of EC50 for human HCN1 to EC50 for mouse HCN4
[4] = tested on: Cardiac muscle of left ventricle; experiment: as §1, with “as action potential time duration” for “as Vmax”, “at 90% of repolarization at 1” for “at 10”, “value: 212.5” for “value: 244.6”, “+/- 16.25 milliseconds)” for “+/- 30.87 V/s)”; assay type: functional, Canis lupus familiaris
[5] = target: T2, Potassium/sodium hyperpolarization-activated cyclic nucleotide-gated channel 2 (Mus musculus, UniProt O88703); experiment: Inhibition of mouse HCN2 expressed in HEK293 cells assessed as reduction in hyperpolarization activated current at holding potential of -80 mV by patch clamp assay; assay type: cell-based
T2 sequence (O88703 whole entry): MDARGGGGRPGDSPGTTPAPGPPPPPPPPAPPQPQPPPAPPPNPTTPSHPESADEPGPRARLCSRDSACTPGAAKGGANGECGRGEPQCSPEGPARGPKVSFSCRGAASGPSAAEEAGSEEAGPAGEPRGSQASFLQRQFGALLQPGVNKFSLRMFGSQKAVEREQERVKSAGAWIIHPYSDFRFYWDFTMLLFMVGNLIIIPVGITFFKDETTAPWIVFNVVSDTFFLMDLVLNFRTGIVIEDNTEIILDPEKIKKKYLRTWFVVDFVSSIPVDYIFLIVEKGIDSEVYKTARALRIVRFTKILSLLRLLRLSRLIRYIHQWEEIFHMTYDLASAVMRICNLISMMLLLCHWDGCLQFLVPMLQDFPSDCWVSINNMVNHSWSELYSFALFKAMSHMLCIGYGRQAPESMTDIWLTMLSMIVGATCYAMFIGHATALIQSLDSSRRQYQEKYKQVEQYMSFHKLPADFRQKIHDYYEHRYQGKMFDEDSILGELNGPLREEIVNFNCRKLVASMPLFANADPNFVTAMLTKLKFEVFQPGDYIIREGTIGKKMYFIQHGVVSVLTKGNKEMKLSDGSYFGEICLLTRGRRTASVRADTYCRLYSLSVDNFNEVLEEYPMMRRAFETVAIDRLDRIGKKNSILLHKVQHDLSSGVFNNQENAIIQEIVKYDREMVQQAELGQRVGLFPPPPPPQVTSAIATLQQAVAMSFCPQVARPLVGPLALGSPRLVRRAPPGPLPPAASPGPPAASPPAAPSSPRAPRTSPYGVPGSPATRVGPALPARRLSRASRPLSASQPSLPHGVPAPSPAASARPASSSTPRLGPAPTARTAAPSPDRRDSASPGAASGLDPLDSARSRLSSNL

[6] = tested on: Cardiac muscle of left ventricle; experiment: as §1, with “as action potential time duration” for “as Vmax”, “at 75% of repolarization at 1” for “at 10”, “value: 199.7” for “value: 244.6”, “+/- 16.87 milliseconds)” for “+/- 30.87 V/s)”; assay type: functional, Canis lupus familiaris
[7] = tested on: Cardiac muscle of left ventricle; experiment: as §1, with “action potential time duration at 50% of repolarization” for “Vmax”, “176” for “244.6”, “16.36 milliseconds)” for “30.87 V/s)”; assay type: functional, Canis lupus familiaris

With COc1ccc(CCN(C)[C@@H]2CCC[C@H](N3CCc4cc(OC)c(OC)cc4CC3=O)C2)cc1OC (racemic) the Activity [1] was 140.6 V/s, the inhibition [2] was 91.3% and the Ratio EC50 [3] was 5. For the same compound, the Time [4] was 204.9 ms, the EC50 [5] was 19.3 µM and the Time [6] was 191.9 ms. For the same compound, the Time [7] was 179.9 ms.

Reference: ChEMBL document CHEMBL4433219, “EC18 as a Tool To Understand the Role of HCN4 Channels in Mediating Hyperpolarization-Activated Current in Tissues” (ACS Med Chem Lett, 2019)
